Molecules are shown by their SMILES. Like-named read-outs stand apart in the source and are kept apart here.

Assay [1] addresses T1, Cyclin Dependent Kinase 4/Cyclin D3 (CDK4-cycD3) (Homo sapiens, UniProt P11802).
T1 construct: purchased Carna Biosciences 04-105
Kind of assay: CDK4-cycD3 TR-FRET (LANCE) enzyme assay. It is filed as biochemical. As to conditions: for Ki: enzymatic assay. As for the experimental part:
(§1) Cyclin Dependent Kinase 1/Cyclin A2 (CDK1-cycA2), Cyclin Dependent Kinase 2/Cyclin E1 (CDK2-cycE1), Cyclin Dependent Kinase 4/Cyclin D3 (CDK4-cycD3) and Cyclin Dependent Kinase 6/Cyclin D3 (CDK6-cycD3) enzyme assays were carried out as described below.
(iii) CDK4-cycD3 TR-FRET (LANCE®)
(§2) An Echo acoustic dispenser is used to create dose responses of compound dissolved in DMSO into a 384-well microplate. A 5 μL volume of enzyme mix is added to the well, and pre-incubated with compound for 30 minutes. […] Buffer conditions are 50 mM HEPES, pH 7.5, 10 mM MgCl2, 2 mM TCEP, 0.05% BGG and 0.01% Brij 35. The reaction is quenched with 5 μL of EDTA in detection buffer (15 mM [EDTA final]). Finally, a 5 μL TR-FRET detection mix is added to the quenched reaction, which includes Europium labeled anti-phospho-4E-BP1. […] Signal is a ratio of the Acceptor and Donor fluorescence. Inhibition constants are calculated via the Morrison equation.

For assay [2], the target named is T2, Cyclin Dependent Kinase 2/Cyclin E1 (CDK2-cycE1) (Homo sapiens, UniProt P24941).
T2 construct: purchased ProQinase 0050-0055-1
Kind of assay: CDK2-cycE1 TR-FRET (LANCE) enzyme assay. The settings on record: for FS CDK1/CDK2 / FS CDK4/CDK2: fold selectivity; for FS CDK1/CDK2: enzymatic CDK1 Ki over CDK2 Ki; for FS CDK4/CDK2: enzymatic CDK4 Ki over CDK2 Ki. The class given is biochemical. The method, then: as §1
(ii) CDK2-cycE1 TR-FRET (LANCE®)
as §2, with “anti-phospho-MBP.” for “anti-phospho-4E-BP1.”, “equation. Enzyme source of CDK2-cycE1 is ProQinase, catalog #: 0050-0055-1.” for “equation.”
A general note: Time-resolved FRET reads energy transfer from a long-lived donor to a nearby acceptor.

Assay [3] concerns the target T3, Cyclin Dependent Kinase 1/Cyclin A2 (CDK1-cycA2) (Homo sapiens, UniProt P06493).
T3 construct: purchased ProQinase 0134-0054-1
The assay can be described thus: CDK1-cycA2 TR-FRET (Lance) enzyme assay. The class given is biochemical. The settings on record: for Ki: enzymatic assay. The method, then:
as §1
(1) CDK1-cycA2 TR-FRET (Lance®)
as §2

For the next assay, the system named is SKOV-3 (ATCC HTB-77). Kind of assay: SKOV-3 EdU incorporation cell proliferation assay (CDK4/6-dependent). It is filed as cell-based. The settings on record: for IC50: Homo sapiens, cellular assay, read-out: CDK4/6 SKOV-3 IC50. The method, then:
(§3) (i) OVISE and SKOV-3 EdU Incorporation Cell Proliferation Assays
(§4) Ovarian cancer cell proliferation is measured by incorporation of EdU (5-ethynyl-2′-deoxyuridine) into newly synthesized DNA. CDK2-dependent proliferation is determined using OVISE (JCRB1043, CCNE1-amplified) while CDK4/6-dependent effect is determined with SKOV-3 (ATCC HTB-77) which is not CCNE1-amplified.
(§5) Cells are plated in 384-well plates in RPMI medium supplemented with 10% FBS. Compounds are added at desired concentrations with a final DMSO content of 0.5%, and cells incubated at 37° C./5% CO2 for 16 hours. EdU (Life Technologies) is added to a final concentration of 0.5 μM and incubation continued for 8 hours, followed by fixation with 4% paraformaldehyde. […] Images are acquired using Yokogawa CQ1 imaging cytometer with a 10×objective. […] The IC50 for inhibition of cell division is determined by fitting the fraction of EdU-positive cells as a function of compound dose using a 4-parameter logistic model.

In assay [4] the test system is OVISE (JCRB1043, CCNE1-amplified). Kind of assay: OVISE EdU incorporation cell proliferation assay (CDK2-dependent). The class given is cell-based. The settings on record: for IC50: cellular assay, read-out: CDK2 OVISE IC50; for FS SKOV-3/OVISE: fold selectivity, cellular SKOV-3 IC50 over OVISE IC50. The method, then:
as §3, §4, §5

[5] abbreviates: Table R, fold selectivity, enzymatic Ki ratio.
Where [6] appears, read: Table O, enzymatic assay, read-out: CDK2 Ki.

T1 sequence (P11802 whole entry): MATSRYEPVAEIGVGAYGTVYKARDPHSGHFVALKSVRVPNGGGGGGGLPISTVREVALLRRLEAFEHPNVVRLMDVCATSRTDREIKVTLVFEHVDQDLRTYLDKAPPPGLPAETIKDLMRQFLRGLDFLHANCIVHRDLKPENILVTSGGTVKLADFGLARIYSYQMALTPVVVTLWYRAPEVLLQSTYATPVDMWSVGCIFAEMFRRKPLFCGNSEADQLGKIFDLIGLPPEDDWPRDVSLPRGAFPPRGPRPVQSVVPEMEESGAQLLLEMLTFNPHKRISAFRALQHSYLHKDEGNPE
T1 sequence (P30281 whole entry partner): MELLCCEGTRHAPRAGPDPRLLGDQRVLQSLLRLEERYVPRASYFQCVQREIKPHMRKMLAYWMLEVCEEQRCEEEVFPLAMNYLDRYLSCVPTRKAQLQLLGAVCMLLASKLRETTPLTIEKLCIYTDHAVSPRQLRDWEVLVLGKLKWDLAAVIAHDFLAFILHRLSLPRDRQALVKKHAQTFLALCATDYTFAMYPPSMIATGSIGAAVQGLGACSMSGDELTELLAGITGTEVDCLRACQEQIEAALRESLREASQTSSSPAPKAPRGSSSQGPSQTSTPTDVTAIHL
T3 sequence (P06493 whole entry): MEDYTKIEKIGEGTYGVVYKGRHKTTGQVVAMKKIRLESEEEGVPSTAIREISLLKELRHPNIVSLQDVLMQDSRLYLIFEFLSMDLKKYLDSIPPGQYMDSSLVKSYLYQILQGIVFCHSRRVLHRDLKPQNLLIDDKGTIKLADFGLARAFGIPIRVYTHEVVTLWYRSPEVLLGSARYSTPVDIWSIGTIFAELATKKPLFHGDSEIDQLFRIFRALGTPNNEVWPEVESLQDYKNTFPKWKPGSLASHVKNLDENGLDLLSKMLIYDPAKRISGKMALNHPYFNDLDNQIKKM
T3 sequence (P20248 whole entry partner): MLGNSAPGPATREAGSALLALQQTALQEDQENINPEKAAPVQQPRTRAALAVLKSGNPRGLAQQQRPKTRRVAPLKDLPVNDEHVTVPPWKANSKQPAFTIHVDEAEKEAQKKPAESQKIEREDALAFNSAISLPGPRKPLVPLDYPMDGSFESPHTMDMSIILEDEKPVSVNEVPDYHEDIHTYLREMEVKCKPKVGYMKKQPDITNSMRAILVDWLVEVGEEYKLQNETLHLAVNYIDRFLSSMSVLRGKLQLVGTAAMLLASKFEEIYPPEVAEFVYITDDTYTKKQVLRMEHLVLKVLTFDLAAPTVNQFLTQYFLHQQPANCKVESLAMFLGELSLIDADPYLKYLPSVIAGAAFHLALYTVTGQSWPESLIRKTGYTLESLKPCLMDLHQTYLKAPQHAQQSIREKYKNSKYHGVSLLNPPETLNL

As for `CC(C)(C)NC(=O)O[C@@H]1CC[C@H](c2cc(Nc3ccc4c(n3)CCC4)n[nH]2)C1` [Comparator D, (1R,3S)-3-(3-((6,7-dihydro-5H-cyclopenta[b]pyridin-2-yl)amino)-1H-pyrazol-5-yl)cyclopentyl tert-butylcarbamate, reference compound], the Ki in assay [1] (Table R) amounted to 5.2 nM; in assay [2] (read-out: CDK2 activity / potency (enzymatic assay)) it was 2.7 nM; in assay [3] (Table R), 54 nM. Besides, the “FS CDK4/CDK2” value in assay [1] (setting [5]) worked out at 1.9. For the same compound, the “FS CDK1/CDK2” value in assay [3] (setting [5]) is reported as 20. Moreover, the IC50 in the assay with SKOV-3 (ATCC HTB-77) (SK-OV-3, Table R) was found to be 1800 nM; in assay [4] (Table R), 3800 nM. Also, the “FS SKOV-3/OVISE” value in the assay on SKOV-3 (ATCC HTB-77) (Table R, fold selectivity, cellular IC50 ratio) is on record as 0.47.

Turning to `COc1ccc(Nc2cc([C@H]3CC[C@@H](OC(=O)NC(C)C)C3)[nH]n2)nn1` [Example 2JJ, (1R,3S)-3-(3-((6-methoxypyridazin-3-yl)amino)-1H-pyrazol-5-yl)cyclopentyl isopropylcarbamate], the Ki in assay [1] (Table O) came to 1200 nM; in assay [2] (setting [6]), 77 nM; in assay [3] (Table O), 1200 nM. The “FS CDK1/CDK2” value in assay [2] (Table O) was found to be 16. The “FS CDK4/CDK2” value in assay [2] (Table O) stood at 16. The IC50 worked out at 3.2 nM in the assay with SKOV-3 (ATCC HTB-77) (SK-OV-3, Table O) and 4100 nM in assay [4] (Table O). Also, the “FS SKOV-3/OVISE” value in assay [4] (Table O) was less than 1.

As to `CNC(=O)c1ccc(Nc2cc([C@H]3CC[C@@H](OC(=O)NC4(C)CC4)C3)[nH]n2)c(C)n1` [Example 7A, (1R,3S)-3-(3-((2-methyl-6-(methylcarbamoyl)pyridin-3-yl)amino)-1H-pyrazol-5-yl)cyclopentyl (1-methylcyclopropyl)carbamate], the Ki in assay [1] (Table O) came to 590 nM; in assay [2] (setting [6]), 14 nM; in assay [3] (Table O), 550 nM. For the same compound, the “FS CDK1/CDK2” value in assay [2] (Table O) was found to be 39. Also, the “FS CDK4/CDK2” value in assay [2] (Table O) is 42. The IC50 with SKOV-3 (ATCC HTB-77) (SK-OV-3, Table O) was greater than 20000 nM; in assay [4] (Table O), 1400 nM. Besides, the “FS SKOV-3/OVISE” value in assay [4] (Table O) is on record as greater than 14.

Consider `CNC(=O)c1ncc(Nc2cc([C@H]3CC[C@@H](OC(=O)NC45CC(C4)C5)C3)[nH]n2)c(C)n1` [Example 9F, (1R,3S)-3-(3-((4-methyl-2-(methylcarbamoyl)pyrimidin-5-yl)amino)-1H-pyrazol-5-yl)cyclopentyl bicyclo[1.1.1]pentan-1-ylcarbamate], for which the Ki in assay [1] (Table O) is 460 nM; in assay [2] (setting [6]), 5 nM; in assay [3] (Table O) it was 80 nM. In addition, in assay [2] (Table O), the “FS CDK1/CDK2” value was determined as 16. Moreover, in assay [2] (Table O), the “FS CDK4/CDK2” value was 92. Besides, the IC50 was greater than 20000 nM with SKOV-3 (ATCC HTB-77) (SK-OV-3, Table O) and 1200 nM in assay [4] (Table O). Further, the “FS SKOV-3/OVISE” value in assay [4] (Table O) is recorded as greater than 17.

In the case of `CC1(NC(=O)O[C@@H]2CC[C@H](c3cc(Nc4cccnn4)n[nH]3)C2)COC1` [Example 3G, (1R,3S)-3-(3-(pyridazin-3-ylamino)-1H-pyrazol-5-yl)cyclopentyl (3-methyloxetan-3-yl)carbamate], the results for the Ki in assay [1] (Table O), in assay [2] (setting [6]) and in assay [3] (Table O) were 730 nM, 8.3 nM and 240 nM, respectively. The “FS CDK1/CDK2” value in assay [2] (Table O) was found to be 29. Further, in assay [2] (Table O), the “FS CDK4/CDK2” value was found to be 88. In addition, the IC50 in the assay on SKOV-3 (ATCC HTB-77) (SK-OV-3, Table O) is greater than 20000 nM; in assay [4] (Table O), 750 nM. In addition, in assay [4] (Table O), the “FS SKOV-3/OVISE” value is greater than 27.

Regarding `O=C(NC1(C(F)(F)F)CC1)O[C@@H]1CC[C@H](c2cc(Nc3cccnn3)n[nH]2)C1` [Example 5, (1R,3S)-3-(3-(pyridazin-3-ylamino)-1H-pyrazol-5-yl)cyclopentyl (1-(trifluoromethyl)cyclopropyl)carbamate], the Ki in assay [1] (Table O) came out at 280 nM; in assay [2] (setting [6]) it was 11 nM; in assay [3] (Table O) it was 270 nM. For the same compound, the “FS CDK1/CDK2” value in assay [2] (Table O) was 25. For the same compound, the “FS CDK4/CDK2” value in assay [2] (Table O) was 25. Moreover, the IC50 came out at 5800 nM in the assay on SKOV-3 (ATCC HTB-77) (SK-OV-3, Table O) and 460 nM in assay [4] (Table O). In addition, the “FS SKOV-3/OVISE” value in assay [4] (Table O) was 13.

Regarding `C[C@H](NC(=O)O[C@@H]1CC[C@H](c2cc(Nc3cccnn3)n[nH]2)C1)C(F)(F)F` (single isomer, unassigned) [Example 5A], the Ki in assay [1] (Table O) came out at 2100 nM; in assay [2] (setting [6]), 63 nM; in assay [3] (Table O), 1700 nM. The “FS CDK1/CDK2” value in assay [2] (Table O) was found to be 27. Also, the “FS CDK4/CDK2” value in assay [2] (Table O) is 33. Besides, the IC50 with SKOV-3 (ATCC HTB-77) (SK-OV-3, Table O) is greater than 20000 nM; in assay [4] (Table O), 2200 nM. The “FS SKOV-3/OVISE” value in assay [4] (Table O) was greater than 9.
